Two compounds from patent publication US20220315572A1, “SUBSTITUTED CYANOPYRROLIDINES WITH ACTIVITY AS USP30 INHIBITORS” (MISSION THERAPEUTICS LIMITED, priority 2019, published 2022) can be followed below.

pEC50: −log10 of the molar value. Bounds are passed on as bounds.

For assay [1], the target named is Cathepsin S (Homo sapiens, UniProt P25774). The assay is described as follows: Cathepsin IC50, cathepsin S. Type of assay: biochemical.
In assay [2] the target is Cathepsin V (Homo sapiens, UniProt O60911). Put plainly: Cathepsin IC50, cathepsin V. Type of assay: biochemical.
Chain of Cathepsin V (O60911 114-334, species assumed): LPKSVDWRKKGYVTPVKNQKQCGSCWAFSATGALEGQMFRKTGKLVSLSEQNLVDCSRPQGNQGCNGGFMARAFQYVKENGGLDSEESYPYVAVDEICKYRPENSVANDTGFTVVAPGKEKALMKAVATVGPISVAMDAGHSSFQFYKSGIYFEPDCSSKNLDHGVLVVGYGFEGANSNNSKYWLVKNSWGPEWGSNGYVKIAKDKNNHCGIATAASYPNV
The target of assay [3] is Cathepsin B (Homo sapiens, UniProt P07858). Put plainly: Cathepsin IC50, cathepsin B. Type of assay: biochemical.
Assay [4] concerns USP2, USP10, USP16, USP21, USP22, USP25, USP28, USP35, USP46. Put plainly: DUB biochemical IC50 assays, nine DUBs. Conditions: range over the nine DUBs; for IC50: Ref. Ex. C excl. USP22, Ref. Ex. D excl. USP2, 46.
In assay [5] the target is T1, Endogenous USP30 (Homo sapiens, UniProt Q70CQ3).
T1 construct: USP30 endogenous cellular target engagement western blot (WB) assay; endogenous in cells; host or cells: HeLa stably overexpressing YFP-Parkin
T1 sequence (Q70CQ3 1-517): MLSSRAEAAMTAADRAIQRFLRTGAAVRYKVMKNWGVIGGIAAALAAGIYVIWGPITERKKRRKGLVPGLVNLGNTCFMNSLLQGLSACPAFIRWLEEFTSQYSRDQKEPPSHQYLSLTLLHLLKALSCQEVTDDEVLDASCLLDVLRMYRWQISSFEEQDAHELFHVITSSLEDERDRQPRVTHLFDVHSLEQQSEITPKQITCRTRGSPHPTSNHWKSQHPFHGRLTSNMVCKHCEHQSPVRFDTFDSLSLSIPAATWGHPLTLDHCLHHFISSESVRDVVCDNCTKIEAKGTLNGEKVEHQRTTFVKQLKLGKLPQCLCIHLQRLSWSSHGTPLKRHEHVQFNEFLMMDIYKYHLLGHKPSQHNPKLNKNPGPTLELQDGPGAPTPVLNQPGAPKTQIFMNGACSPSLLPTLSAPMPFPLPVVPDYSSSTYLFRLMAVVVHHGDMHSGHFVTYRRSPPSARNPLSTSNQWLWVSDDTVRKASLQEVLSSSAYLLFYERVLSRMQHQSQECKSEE
Put plainly: USP30 endogenous cellular target engagement western blot assay (Cell TE WB). Type of assay: cell-based. Conditions: Hela cells stably overexpressing YFP-Parkin, 1 hour. As to the method: Hela cells stably overexpressing YFP-Parkin were seeded into 6 well dishes. Once adhered, cells were treated with appropriate concentrations of test compounds or vehicle control for 1 hour at 37° C., 5% CO2. Whole cell lysates were prepared by scraping the cells into cold PBS, centrifuging and lysing in lysis buffer (50 mM Tris-base, pH 7.5, 50 mM NaCl, 1% NP-40/Igepal CA-630, 2 mM MgCl2, 10% Glycerol, 5 mM beta-mercaptoethanol, cOmplete mini tablets EDTA free (Roche), PhosStop tablets (Roche)) for 10 mins. The equivalent of 20 μg of protein from the cleared cell lysate was incubated with a final conc of 2.5 μM HA-Ahx-Ahx-Ub-VME probe at room temperature. The reaction was stopped by addition of 5×SDS sample loading buffer and proteins separated by SDS PAGE and western blotting. USP30 was detected using an anti-USP30 Sheep S746D antibody (MRC PPU Reagents and Services) and a rabbit anti sheep secondary IgG (H+L) horseradish peroxidase conjugated (Thermo #31480) and visualised using ECL reagent (GE #RPN2109) on a GE LAS4000 imager. Target engagement was measured by quantitation of the bands corresponding to USP30 and USP30 bound to the Ub-VME probe and expression of this proportion compared to vehicle treated control.
Cell TE WB: USP30 endogenous cellular target engagement western blot (WB) assay. Assays the activity of compounds against USP30 in cells using an irreversible activity probe to monitor USP30 activity.

In assay [6] the test system is Cathepsins B, K, L, S, V. The assay is described as follows: Cathepsin IC50, range over B, K, L, S, V. The conditions noted are these: for Selectivity preference for USP30 v cathepsins: range over cathepsins B, K, L, S; for IC50: range over the five cathepsins. Type of assay: biochemical.
Assay [7] has as its target T2, UCHL1 (Homo sapiens, UniProt P09936).
T2 sequence (P09936 1-223): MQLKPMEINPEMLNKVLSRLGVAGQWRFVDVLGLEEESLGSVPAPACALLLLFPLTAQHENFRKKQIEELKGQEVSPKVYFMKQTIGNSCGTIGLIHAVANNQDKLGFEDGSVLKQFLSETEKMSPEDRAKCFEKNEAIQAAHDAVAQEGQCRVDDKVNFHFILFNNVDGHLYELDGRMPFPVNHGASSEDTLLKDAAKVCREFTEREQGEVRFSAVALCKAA
The assay is described as follows: DUB biochemical IC50 assay, UCHL1.

The target in assay [8] is Cathepsin L (Homo sapiens, UniProt P07711). The assay is described as follows: Cathepsin IC50, cathepsin L. Type of assay: biochemical.
Chain of Cathepsin L (P07711 114-333, species assumed): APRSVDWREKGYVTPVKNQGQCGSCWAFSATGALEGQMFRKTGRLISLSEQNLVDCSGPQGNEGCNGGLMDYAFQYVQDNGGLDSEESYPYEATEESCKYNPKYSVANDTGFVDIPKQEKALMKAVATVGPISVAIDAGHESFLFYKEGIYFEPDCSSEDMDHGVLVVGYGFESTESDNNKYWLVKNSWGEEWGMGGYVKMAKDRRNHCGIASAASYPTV
Assay [9] concerns HCT116 human colorectal carcinoma cells. Put plainly: In vitro cytotoxicity (Cell Tox), alamarBlue. The conditions noted are these: for pEC50: Homo sapiens, HCT-116, 96-hour continual compound exposure, alamarBlue. Type of assay: cell-based. The source says: There is also a need for compounds that have a favourable safety profile, which may be measured by a variety of standard in vitro and in vivo methods. A cell toxicity counter-screen may be used to assay the anti-proliferative/cytotoxic effect in a particular cell line (e.g. HCT116) by fluorometric detection of rezasurin (alamarBlue) to resofurin in response to mitochondrial activity.
In Vitro Cytotoxicity (Cell Tox): Measured in HCT116 human colorectal carcinoma cells using alamarBlue as the assay endpoint. Compound cytotoxicity was measured over a period of 96-hour continual compound exposure.

Chain of Cathepsin S (P25774 115-331, species assumed): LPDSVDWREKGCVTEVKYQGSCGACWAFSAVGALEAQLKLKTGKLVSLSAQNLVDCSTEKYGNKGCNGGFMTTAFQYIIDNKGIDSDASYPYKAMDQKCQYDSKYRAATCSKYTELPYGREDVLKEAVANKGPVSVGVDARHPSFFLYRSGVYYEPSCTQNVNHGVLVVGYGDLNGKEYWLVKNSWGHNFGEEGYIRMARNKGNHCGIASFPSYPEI

What is called IC50 is the midpoint of a concentration-inhibition curve. Read a high IC50 as weaker potency in that assay. For orientation: pEC50 means the negative decadic logarithm of the EC50, by convention in mol/L. A lower pEC50 goes with a high EC50. With `N#Cc1cccc(-c2nnc(C(=O)N[C@@H]3C[C@@H](CF)N(C#N)C3)o2)c1` [Example 3, N-((3R,5S)-1-Cyano-5-(fluoromethyl)pyrrolidin-3-yl)-5-(3-cyanophenyl)-1,3,4-oxadiazole-2-carboxamide], the IC50 was 256 µM in assay [1]; 42.9 µM in assay [2]; 29.4 µM in assay [3]; at least 4.4 µM in assay [4]; 9.9 to 256 µM in assay [6]; 200 µM in assay [7]. In [8], this compound came in with an IC50 of 9.9 µM. The “DUB selectivity preference for USP30 v 9 DUBs” value in [4] was 338-23000. Further, the pEC50 in [5] is 7.43; in assay [9] it was below 4.52. In addition, in assay [6], the “Selectivity preference for USP30 v cathepsins” value is 760-19700. Moreover, the “DUB selectivity preference for USP30 v UCHL1” value in [7] is 15400. Further, the “Cell Tox EC50/USP30 IC50” value in assay [9] is above 2300.
For `C[C@@H]1C[C@@H](NC(=O)c2nnc(-c3cccc(C#N)c3)o2)CN1C#N` [Example 1, N-((3R,5R)-1-Cyano-5-methylpyrrolidin-3-yl)-5-(3-cyanophenyl)-1,3,4-oxadiazole-2-carboxamide], the IC50 in assay [1] was above 300 µM; in assay [2], 176 µM; in [3], 154 µM; in assay [4] it was 5.8 to 202 µM; in assay [6] it was 26.2 to 300 µM; in assay [7], above 300 µM. Further, half-maximal inhibition in assay [8] (IC50) required 30.9 µM. Besides, the “DUB selectivity preference for USP30 v 9 DUBs” value in assay [4] is given as 200-6900. The pEC50 was 7.19 in [5] and below 4.52 in [9]. In addition, the “Selectivity preference for USP30 v cathepsins” value in [6] was 900-10300. For the same compound, the “DUB selectivity preference for USP30 v UCHL1” value in [7] is reported as 10300. The “fold more selective for USP30 over cathepsin L than A” value in [8] (v Reference Example A) was determined as 27 fold. The “fold more selective for USP30 over cathepsin L than B” value in assay [8] (v Reference Example B) stood at 59 fold. Also, the “fold more selective for USP30 over cathepsin L than C” value in assay [8] (v Reference Example C) is listed as 18 fold. Further, in [8] (v Reference Example D), the “fold more selective for USP30 over cathepsin L than D” value was found to be 19 fold. Moreover, the “fold more selective for USP30 over cathepsin L than E” value in assay [8] (v Reference Example E) is 333 fold. In addition, the “fold more selective for USP30 over cathepsin L than F” value in assay [8] (v Reference Example F) was 3135 fold. Also, in [9], the “Cell Tox EC50/USP30 IC50” value is above 1000.
